From US20210051949A1, “SOLID AGROCHEMICAL COMPOSITIONS” (UPL LTD, priority 2018, published 2021)

Assays:
[1] = Physical parameters (active content, suspensibility, dispersibility, moisture, wet sieve) of a composition of 2,4-D acid, metsulfuron methyl and picloram acid; format: physicochemical; set-up: unit not given here
Excerpt: Physical Parameters of a Composition Comprising 2, 4-D Acid, Metsulfuron Methyl and Picloram Acid:
Physical parameters such as suspensibility, dispersibility has been tested for a composition prepared according to the present invention are listed in the below table (Table 2).
As evident from the Table 2, the physical parameters such as suspensibility and dispersibility of the compositions prepared according to the present invention satisfies the requirement for a stable formulation.

[2] = Comparative study of degradation of metsulfuron methyl in compositions with 2,4-D acid or 2,4-D sodium salt plus picloram (accelerated heat stability); format: physicochemical; details: for Active content: picloram, metsulfuron methyl
Method: Degradation of Metsulfuron Methyl in Compositions with 2,4-D Acid and 2,4-D Sodium Salt: Comparative Study
A comparative study of degradation of metsulfuron methyl in composition of 2,4-D acid and 2,4-D sodium salt in combination with picloram was carried out. The results are summarized in the below table (Table 1):
The study was conducted at 0 days as well as after 14 days at 54° C. (accelerated heat stability conditions).

[3] = composition with 2,4-D acid, 0 days
[4] = composition with 2,4-D acid, 14 days at 54° C.
[5] = composition with 2,4-sodium salt, 0 days
[6] = composition with 2,4-sodium salt, 14 days at 54° C.

SMILES | Active ingredient (content) ([1]; 14 Day AHS) | Suspensibility ([1]; 14 Day AHS) | Active ingredient (content) ([1]; Ambient) | Suspensibility ([1]; Ambient) | Active content [2, 3] [gm] | Active content [2, 4] [gm] | % degradation after 14 days [2, 4] [%] | Active content [2, 5] [gm] | Active content [2, 6] [gm] | % degradation after 14 days [2, 6] [%]
O=C(O)COc1ccc(Cl)cc1Cl [2,4-D acid, 2,4-dichlorophenoxy acetic acid] | 319.6 | 99.10 | 320.5 | 99.96 | 333.03 | 325.01 | 2.41 | 325.28 | 328.01 | 0.84
COC(=O)c1ccccc1S(=O)(=O)NC(=O)Nc1nc(C)nc(OC)n1 [Metsulfuron methyl] | 39.30 | 99.75 | 42.3 | 100.90 | 46.06 | 44.42 |  | 49.78 | 43.88 | 
Nc1c(Cl)c(Cl)nc(C(=O)O)c1Cl [Picloram acid, Picloram] | 105.5 | 99.61 | 106.5 | 100.50 | 98.96 | 98.05 | 0.92 | 95.65 | 95.59 | 0.06
